Test results published in ChEMBL document CHEMBL3632608, “Effects of alkyl side chains and terminal hydrophilicity on vitamin D receptor (VDR) agonistic activity based on the diphenylpentane skeleton” (Bioorg Med Chem Lett, 2015).
Active and inactive are the calls of the source. No cut-off for these calls is given here.

Columns and labels:
Format in all cases: cell-based
Vitamin D3 receptor = molecular target: T1, Vitamin D3 receptor (Homo sapiens, UniProt P11473); assay: Agonist activity at human VDR expressed in HEK293 cells co-expressing CMX-GAL4N and TK-MH100x4-LUC assessed as induction of transcriptional activity by beta-galactosidase reporter gene assay
T1 sequence (P11473 whole entry): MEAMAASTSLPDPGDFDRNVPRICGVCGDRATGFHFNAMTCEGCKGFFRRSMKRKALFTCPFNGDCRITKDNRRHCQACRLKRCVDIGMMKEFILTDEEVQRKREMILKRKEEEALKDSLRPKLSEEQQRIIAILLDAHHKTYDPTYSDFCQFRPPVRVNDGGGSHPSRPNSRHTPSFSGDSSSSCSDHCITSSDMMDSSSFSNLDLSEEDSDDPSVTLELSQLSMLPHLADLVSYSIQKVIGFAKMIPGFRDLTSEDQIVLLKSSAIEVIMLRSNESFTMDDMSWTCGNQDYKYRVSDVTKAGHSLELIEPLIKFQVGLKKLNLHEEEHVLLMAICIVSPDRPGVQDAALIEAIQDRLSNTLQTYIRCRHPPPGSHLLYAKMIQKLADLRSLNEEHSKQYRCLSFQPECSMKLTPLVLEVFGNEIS

[1] = molecular target: T2, Vitamin D3 receptor (Homo sapiens) (UniProt P11473); assay: Agonist activity at human VDR expressed in HEK293 cells co-expressing CMX-GAL4N and TK-MH100x4-LUC assessed as induction of transcriptional activity at 3 uM by beta-galactosidase reporter gene assay relative to 1alpha,25(OH)2VD3
T2 sequence (whole entry): T1 sequence (P11473 whole entry)

[2] = molecular target: T2, Vitamin D3 receptor (Homo sapiens); assay: Antagonist activity at human VDR expressed in HEK293 cells co-expressing CMX-GAL4N and TK-MH100x4-LUC assessed as inhibition of 1alpha,25(OH)2VD3-induced transcriptional activity up to 10 uM by beta-galactosidase reporter gene assay
[3] = molecular target: T2, Vitamin D3 receptor (Homo sapiens); assay: Agonist activity at human VDR expressed in HEK293 cells co-expressing CMX-GAL4N and TK-MH100x4-LUC assessed as induction of transcriptional activity at 10 uM by beta-galactosidase reporter gene assay relative to 1alpha,25(OH)2VD3
[4] = molecular target: T2, Vitamin D3 receptor (Homo sapiens); assay: Agonist activity at VDR in human HL60 cells assessed as induction of cell differentiation at 10 uM by NBT reduction assay; conditions: HL-60

EC50 (Vitamin D3 receptor; hek293) | Activity [1] | EC50 (Vitamin D3 receptor; read-out: EC50) | inhibition [2] | Activity [3] | Activity [4] | SMILES
Not Active | – | – | – | – | – | CCCCCCCCCCOC(C)(C)[C@@H](O)COc1ccc(C(CC)(CC)c2ccc(OC[C@@H](O)CO)c(C)c2)cc1C
Not Active | – | – | – | – | – | CCCCCCCCOC(C)(C)[C@@H](O)COc1ccc(C(CC)(CC)c2ccc(OC[C@@H](O)CO)c(C)c2)cc1C
– | 19% | > 10000 nM | inactive | 22% | – | CCCCCCOC(C)(C)[C@H](O)COc1ccc(C(CC)(CC)c2ccc(OC[C@@H](O)CO)c(C)c2)cc1C
– | 77% | 1200 nM | inactive | 100% | 37.6% | CCC(CC)(c1ccc(OC[C@@H](O)CO)c(C)c1)c1ccc(OC[C@H](O)C(C)(C)OCCCCCCCCO)c(C)c1
Not Active | – | – | – | – | – | CCCCCCCCOC(C)(C)[C@H](O)COc1ccc(C(CC)(CC)c2ccc(OC[C@@H](O)CO)c(C)c2)cc1C
– | 37% | 1500 nM | inactive | 47% | 25.1% | CCCCCCOC(C)(C)[C@@H](O)COc1ccc(C(CC)(CC)c2ccc(OC[C@@H](O)CO)c(C)c2)cc1C
– | 40% | > 3000 nM | inactive | – | 18.8% | CCC(CC)(c1ccc(OC[C@@H](O)CO)c(C)c1)c1ccc(OC[C@@H](O)C(C)(C)OCCCCCCCCO)c(C)c1
Not Active | – | – | – | – | – | CCCCCCCCCCOC(C)(C)[C@H](O)COc1ccc(C(CC)(CC)c2ccc(OC[C@@H](O)CO)c(C)c2)cc1C
